The values below come from ChEMBL document CHEMBL4813991, “Design, synthesis and bioactivity study on 5-phenylfuran derivatives as potent reversal agents against P-glycoprotein-mediated multidrug resistance in MCF-7/ADR cell” (Eur J Med Chem, 2021).

Active and inactive are the calls of the source. The calls are words filed in the database; no cut-off is given here.

Usually inhibition stands for the drop in the measured response relative to a control, in per cent. A word on the IC50: it is the midpoint of a concentration-inhibition curve.

Data set [1] can be described thus: Antiproliferative activity against human MCF7/ADR cells assessed as inhibition rate at 50 uM incubated for 48 hrs by CCK-8 assay. The format is functional. The settings on record: NCI/ADR-RES. On the technique in general: Tetrazolium assays rely on reduction of a dye to a coloured formazan, in cell work by metabolically active cells.
For data set [2], the system named is MCF7. The data set is described as follows: Antiproliferative activity against human MCF7 cells assessed as inhibition rate at 50 uM incubated for 48 hrs by CCK-8 assay. The format is functional.
For data set [3], the target named is T1, ATP-dependent translocase ABCB1 (Homo sapiens, UniProt P08183). The data set is described as follows: Inhibition of P-glycoprotein in human MCF7/ADR cells assessed as reversal fold by measuring reduction in paclitaxel IC50 at 5 uM incubated for 48 hrs by CCK-8 assay. The format is cell-based. The settings on record: nci/adr-res.
T1 sequence (P08183 whole entry): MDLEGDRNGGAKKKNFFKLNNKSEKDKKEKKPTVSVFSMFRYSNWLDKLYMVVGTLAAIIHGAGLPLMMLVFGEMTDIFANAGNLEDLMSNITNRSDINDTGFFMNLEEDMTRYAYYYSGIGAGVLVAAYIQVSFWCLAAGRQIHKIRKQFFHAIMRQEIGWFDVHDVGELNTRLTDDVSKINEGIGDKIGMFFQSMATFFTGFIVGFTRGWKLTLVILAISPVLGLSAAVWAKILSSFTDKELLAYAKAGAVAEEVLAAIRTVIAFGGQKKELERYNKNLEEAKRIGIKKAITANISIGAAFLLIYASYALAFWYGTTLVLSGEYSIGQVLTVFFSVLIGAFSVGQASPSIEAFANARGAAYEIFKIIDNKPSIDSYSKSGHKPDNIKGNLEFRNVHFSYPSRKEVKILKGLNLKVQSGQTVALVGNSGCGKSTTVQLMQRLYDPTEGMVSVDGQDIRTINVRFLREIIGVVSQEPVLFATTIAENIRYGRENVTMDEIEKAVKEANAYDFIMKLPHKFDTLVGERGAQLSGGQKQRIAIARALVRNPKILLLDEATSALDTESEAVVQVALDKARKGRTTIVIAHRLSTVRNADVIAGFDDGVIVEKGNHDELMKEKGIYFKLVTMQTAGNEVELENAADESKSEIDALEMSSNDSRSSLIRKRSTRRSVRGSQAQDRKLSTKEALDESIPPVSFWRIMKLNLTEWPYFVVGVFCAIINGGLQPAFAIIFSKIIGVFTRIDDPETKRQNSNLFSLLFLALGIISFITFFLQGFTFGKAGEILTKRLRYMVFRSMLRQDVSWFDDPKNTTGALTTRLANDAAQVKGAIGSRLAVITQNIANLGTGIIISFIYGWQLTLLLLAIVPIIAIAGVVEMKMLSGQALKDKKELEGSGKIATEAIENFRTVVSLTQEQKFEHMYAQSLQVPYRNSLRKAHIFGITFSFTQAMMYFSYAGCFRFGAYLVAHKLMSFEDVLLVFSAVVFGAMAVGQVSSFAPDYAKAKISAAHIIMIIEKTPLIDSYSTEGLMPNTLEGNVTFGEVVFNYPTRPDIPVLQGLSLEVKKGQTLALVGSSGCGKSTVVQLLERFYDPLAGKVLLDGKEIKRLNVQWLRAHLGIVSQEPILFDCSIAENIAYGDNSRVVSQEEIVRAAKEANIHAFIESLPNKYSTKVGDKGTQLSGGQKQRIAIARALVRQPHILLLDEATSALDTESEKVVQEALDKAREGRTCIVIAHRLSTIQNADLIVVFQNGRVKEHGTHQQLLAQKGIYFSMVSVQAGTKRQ
Data set [4] relates to NCI/ADR-RES. Description: Antiproliferative activity against human MCF7/ADR cells incubated for 48 hrs by CCK-8 assay. Type of data set: functional, cell-based.
Data set [5] relates to MCF7. The data set is described as follows: Antiproliferative activity against human MCF7 cells assessed as inhibition rate at 10 uM incubated for 48 hrs by CCK-8 assay. The format is functional.
Data set [6] can be described thus: Antiproliferative activity against human MCF7/ADR cells assessed as inhibition rate at 10 uM incubated for 48 hrs by CCK-8 assay. The format is functional. The note with it: NCI/ADR-RES.
Data set [7] addresses T1, ATP-dependent translocase ABCB1. The data set is described as follows: Inhibition of P-glycoprotein in human MCF7/ADR cells assessed as reversal fold by measuring reduction in daunorubicin IC50 at 5 uM incubated for 48 hrs by CCK-8 assay. The format is cell-based. The settings on record: nci/adr-res.
Data set [8] shares this target. Description: Inhibition of P-glycoprotein in human MCF7/ADR cells assessed as reversal fold by measuring reduction in vincristine IC50 at 5 uM incubated for 48 hrs by CCK-8 assay. The note with it: nci/adr-res. The format is cell-based.
Data set [9] deals with NCI/ADR-RES. The data set is described as follows: Effect on P-glycoprotein expression in human MCF7/ADR cells upto 10 uM after 48 hrs by Western blot analysis. The format is functional, cell-based. The note with it: dose microM <=10, time 48.0 hrs. (Immunoblotting shows a protein as a band on a membrane.)
Data set [10] addresses T1, ATP-dependent translocase ABCB1. Description: Inhibition of P-glycoprotein in human MCF7/ADR cells assessed as rhodamine-123 accumulation by measuring fluorescence intensity at 1 uM measured after 30 mins by flow cytometry analysis. Type of data set: cell-based. The settings on record: nci/adr-res, 0.5 h. (Flow cytometry measures light scatter and fluorescence of single cells or particles in a stream.)

Data set [11] has the same target. The data set is described as follows: Inhibition of P-glycoprotein in human MCF7/ADR cells assessed as reversal fold by measuring reduction in doxorubicin IC50 at 0.05 uM incubated for 48 hrs by CCK-8 assay. The format is cell-based. The settings on record: nci/adr-res.
Data set [12] has the same target. Description: Inhibition of P-glycoprotein in human MCF7/ADR cells assessed as reversal fold by measuring reduction in doxorubicin IC50 at 0.5 uM incubated for 48 hrs by CCK-8 assay. The format is cell-based. The note with it: nci/adr-res.
Data set [13] has the same target. The data set is described as follows: Inhibition of P-glycoprotein in human MCF7/ADR cells assessed as rhodamine-123 accumulation by measuring fluorescence intensity at 0.1 uM measured after 30 mins by flow cytometry analysis. Type of data set: cell-based. The note with it: nci/adr-res, 0.5 h.
The target is the same in data set [14]. The data set is described as follows: Inhibition of P-glycoprotein in human MCF7/ADR cells assessed as rhodamine-123 accumulation by measuring fluorescence intensity at 10 uM measured after 30 mins by flow cytometry analysis. The format is cell-based. The note with it: nci/adr-res, 0.5 h.

On to `COc1cccc(-c2ccc(C(=O)N3CCc4cc(OC)c(OC)cc4C3)o2)c1`, for which the inhibition at 50 µM in data set [1] is 1.5%; in the data set on MCF7 [2], -9.9%.
In the same order, the values of `COc1cc2c(cc1OC)CN(C(=O)c1ccc(-c3ccc(OC(F)(F)F)cc3)o1)CC2` are 12.7% and -4.1%.
Take `COc1ccc(-c2ccc(C(=O)N3CCc4cc(OC)c(OC)cc4C3)o2)cc1`: the inhibition at 50 µM in data set [1] was -2.1%; with MCF7 [2], 20.4%.
Take `CCCCOc1ccc(-c2ccc(C(=O)N3CCc4cc(OC)c(OC)cc4C3)o2)cc1`: the figures for the inhibition at 50 µM (in [1]; in the data set on MCF7 [2]) were 25.4% and 21%, respectively.
In the case of `CC(=O)O[C@H]1C(=O)[C@@]2(C)[C@H]([C@H](OC(=O)c3ccccc3)[C@]3(O)C[C@H](OC(=O)[C@H](O)[C@@H](NC(=O)c4ccccc4)c4ccccc4)C(C)=C1C3(C)C)[C@]1(OC(C)=O)CO[C@@H]1C[C@@H]2O` [PACLITAXEL], the “fold change (FC)” value in data set [3] is given as 22.6. This molecule displayed an IC50 in the data set with NCI/ADR-RES [4] of 58.7 µM.
On to `CCCOc1ccc(-c2ccc(C(=O)N3CCc4cc(OC)c(OC)cc4C3)o2)cc1`, for which the values for the inhibition at 50 µM (in [1]; with MCF7 [2]) were 32.3% and 36.2%, respectively.
For `COc1ccc(-c2ccc(C(=O)N3CCc4cc(OC)c(OC)cc4C3)o2)cc1OC`, the inhibition at 10 µM in the data set with MCF7 [5] came out at 17.6%. In addition, the inhibition at 50 µM in [1] came out at 26.7%; in the data set on MCF7 [2] it was 41.8%.
For the molecule `COc1cc2c(cc1OC)CN(C(=O)c1ccc(-c3ccc(OC(C)(C)C)cc3)o1)CC2`, the inhibition at 50 µM turned out to be 28.9% in data set [1] and 33.8% with MCF7 [2].
In the same order, the values of `COc1cc2c(cc1OC)CN(C(=O)c1ccc(-c3ccc4c(c3)OCO4)o1)CC2` are 5.4% and 34%.
Regarding `COc1cc2c(cc1OC)CN(C(=O)c1ccc(-c3ccc(OCC(C)C)cc3)o1)CC2`, the values for the inhibition at 50 µM (in data set [1]; in the data set with MCF7 [2]) were 11.9% and 19.2%, respectively.
`COc1cc2c(cc1OC)CN(C(=O)c1ccc(-c3cc(OC)c(OC)c(OC)c3)o1)CC2`: the figures for the inhibition at 10 µM (in the data set with MCF7 [5]; in data set [6]) were 30% and 19.6%, respectively. The inhibition at 50 µM was 51.2% in [1] and 64.7% with MCF7 [2].
Regarding `COc1ccc(-c2ccc(C(=O)N3CCc4cc(OC)c(OC)cc4C3)o2)c(OC)c1`, the inhibition at 10 µM came to 15.4% with MCF7 [5] and 28.4% in [6]. In addition, the figures for the inhibition at 50 µM (in data set [1]; in the data set on MCF7 [2]) were 59.8% and 49.3%, respectively.
Consider `COc1ccc(CCN(C)CCCC(C#N)(c2ccc(OC)c(OC)c2)C(C)C)cc1OC` (stereo unspecified), for which the inhibition at 10 µM in the data set on MCF7 [5] came to 8.3%; in [6] it was 25%.
For `COc1cc2c(cc1OC)CN(C(=O)c1ccc(-c3ccc(SC(C)C)cc3)o1)CC2`, the inhibition at 50 µM stood at 39% in data set [1] and 33.6% in the data set on MCF7 [2].
On to `COc1cc(OC)cc(-c2ccc(C(=O)N3CCc4cc(OC)c(OC)cc4C3)o2)c1`, for which the inhibition at 10 µM in the data set with MCF7 [5] is 19.8%; in [6], 21.7%. Besides, the figures for the inhibition at 50 µM (in data set [1]; in the data set with MCF7 [2]) were 52.9% and 81.8%, respectively.
As for `CCOc1ccc(-c2ccc(C(=O)N3CCc4cc(OC)c(OC)cc4C3)o2)cc1`, the inhibition at 50 µM came out at 8.1% in [1] and 20.5% with MCF7 [2].
As for `COc1cc2c(cc1OC)CN(C(=O)c1ccc(-c3ccccc3OC)o1)CC2`, the inhibition at 10 µM in the data set on MCF7 [5] was found to be 55.9%. For the same molecule, the inhibition at 50 µM was 36.9% in [1] and 66% with MCF7 [2].
Regarding `COc1cccc2c1C(=O)c1c(O)c3c(c(O)c1C2=O)C[C@@](O)(C(C)=O)C[C@@H]3O[C@H]1C[C@H](N)[C@H](O)[C@H](C)O1` [DAUNORUBICIN], the “fold change (FC)” value in [7] amounted to 2.8. This molecule also had an IC50 with NCI/ADR-RES [4] of 51.6 µM.
Turning to `COc1ccc(OC)c(-c2ccc(C(=O)N3CCc4cc(OC)c(OC)cc4C3)o2)c1`, the results for the inhibition at 10 µM (with MCF7 [5]; in data set [6]) were 11.4% and 23.2%, respectively. The inhibition at 50 µM in data set [1] amounted to 68.2%; in the data set on MCF7 [2], 63.6%.
Regarding `COc1cc2c(cc1OC)CN(C(=O)c1ccc(-c3ccc(Oc4ccccc4)cc3)o1)CC2`, the results for the inhibition at 10 µM (with MCF7 [5]; in data set [6]) were 7% and 27.6%, respectively. In addition, the inhibition at 50 µM came to 57% in [1] and 45.4% in the data set on MCF7 [2].
Regarding `CC[C@]1(O)C[C@H]2CN(CCc3c([nH]c4ccccc34)[C@@](C(=O)OC)(c3cc4c(cc3OC)N(C=O)[C@H]3[C@@](O)(C(=O)OC)[C@H](OC(C)=O)[C@]5(CC)C=CCN6CC[C@]43[C@@H]65)C2)C1` [VINCRISTINE], in [8], the “fold change (FC)” value is on record as 62.8. In addition, the IC50 with NCI/ADR-RES [4] was found to be 10.1 µM.
Regarding `COc1cc2c(cc1OC)CN(C(=O)c1ccc(-c3cccc(OC)c3OC)o1)CC2`, the inhibition at 50 µM in [1] turned out to be 10%; with MCF7 [2] it was 39.4%.
Turning to `C/C=C/C[C@@H](C)[C@@H](O)[C@H]1C(=O)N[C@@H](CC)C(=O)N(C)CC(=O)N(C)[C@@H](CC(C)C)C(=O)N[C@@H](C(C)C)C(=O)N(C)[C@@H](CC(C)C)C(=O)N[C@@H](C)C(=O)N[C@H](C)C(=O)N(C)[C@@H](CC(C)C)C(=O)N(C)[C@@H](CC(C)C)C(=O)N(C)[C@@H](C(C)C)C(=O)N1C` [CYCLOSPORINE], the inhibition at 10 µM turned out to be 19.3% in the data set on MCF7 [5] and 22.7% in data set [6].
Regarding `COc1cc2c(cc1OC)CN(C(=O)c1ccc(-c3ccc(OC(C)C)cc3)o1)CC2`, in the data set on NCI/ADR-RES [9], the result was inactive. Besides, the results for the inhibition at 50 µM (in [1]; in the data set with MCF7 [2]) were 20% and 38.1%, respectively. Besides, the “inhibition (INH)” value in data set [10] is listed as “Active”; in data set [13], “Not Active”; in data set [14] it was “Active”. The “fold change (FC)” value came to 1.9 in data set [11] and 6.7 in [12].
